For experiment [1], the target named is T1, EGFR del746-750 T790M (Homo sapiens, UniProt P00533, DEL746-750/T790M).
T1 construct: purchased Carna Biosciences 08-528
In words: EGFR del746-750 T790M biochemical assay (Caliper mobility shift). To be noted: 5 μM ATP; apparent Ki (Morrison fit) converted by Cheng-Prusoff, Km of ATP 2.1 μM; read-out: EGFR(T790M/d746-750) Ki. The procedure, abridged: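 Kinase reactions ran 30 min at room temperature (22 °C), then were stopped with 80 mM EDTA. Phosphorylated product and substrate were separated electrophoretically and quantified by Caliper mobility shift.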

Experiment [2] deals with T2, phosphor-EGFR in H1975(L585R/T790M) mutant EGFR expressing cells (Homo sapiens, UniProt P00533, L858R/T790M).
T2 construct: host or cells: NCI-H1975
Kind of experiment: H1975 pEGFR MSD cellular assay. In kind it is cell-based. To be noted: NCI-H1975 cells, serum starved, 1 hour compound incubation, pEGFR Tyr1068 MSD; read-out: HI975 pEGFR EC50. The procedure, abridged: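 NCI-H1975 cells, 30,000/well, serum-starved overnight, then treated 1 hour at 37° C with serially diluted compounds in serum-free medium (0.5% DMSO). Lysates captured on anti-phospho-EGFR plates overnight at 4° C, detected with SULFO-TAG anti-total EGFR by electrochemiluminescence. Inhibition vs untreated controls; EC50 from 4-parameter logistic fit.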

The subject of experiment [3] is H1975 (EGFR T790M/L858R) cell proliferation. Kind of experiment: H1975 proliferation assay (Cell Titer-Glo). In kind it is cell-based. The note with it: Homo sapiens, NCI-H1975, 72 h, NCI-H1975 cells, 72 hour incubation, read-out: H1975 antiproliferative EC50. The protocol: H1975 Proliferation Assays
All cell culture reagents were purchased from Invitrogen/Gibco. Cells are cultured at 37° C. at 5% CO2 and split as recommended by ATCC.
A general note: In ATP-based viability assays light output follows the ATP content of the culture.

The target in experiment [4] is T3, EGFR T790M L858R (Homo sapiens, UniProt P00533, L858R/T790M).
T3 construct: purchased Life Technologies PV4879
Kind of experiment: EGFR T790M L858R biochemical assay (Caliper mobility shift). To be noted: 5 μM ATP; apparent Ki (Morrison fit) converted by Cheng-Prusoff, Km of ATP 1.3 μM. In short, it runs like this: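 Reactions run 30 minutes at room temperature (22 °C), stopped with 80 mM EDTA. Phosphorylated product and substrate separated electrophoretically and quantified by Caliper mobility shift.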

One may read the EC50 as the concentration that produces a half-maximal response.

T1 sequence (P00533 with tags, fused parts or gaps DEL746-750/T790M limits assumed): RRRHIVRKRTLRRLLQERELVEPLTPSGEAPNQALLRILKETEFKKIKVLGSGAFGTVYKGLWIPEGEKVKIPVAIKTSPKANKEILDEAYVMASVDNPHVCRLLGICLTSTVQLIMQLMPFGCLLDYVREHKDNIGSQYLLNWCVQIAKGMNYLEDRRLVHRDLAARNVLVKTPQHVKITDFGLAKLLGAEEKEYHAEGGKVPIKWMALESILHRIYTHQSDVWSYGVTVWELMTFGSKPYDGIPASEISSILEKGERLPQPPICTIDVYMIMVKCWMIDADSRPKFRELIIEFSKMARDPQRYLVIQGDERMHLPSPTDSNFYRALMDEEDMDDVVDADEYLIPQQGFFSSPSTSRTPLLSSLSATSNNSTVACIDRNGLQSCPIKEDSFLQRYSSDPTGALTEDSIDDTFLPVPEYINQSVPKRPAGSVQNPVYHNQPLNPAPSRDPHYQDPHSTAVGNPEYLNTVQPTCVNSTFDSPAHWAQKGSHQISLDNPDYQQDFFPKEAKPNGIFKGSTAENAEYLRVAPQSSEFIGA
T2 sequence (P00533 25-1210 T790M/L858R): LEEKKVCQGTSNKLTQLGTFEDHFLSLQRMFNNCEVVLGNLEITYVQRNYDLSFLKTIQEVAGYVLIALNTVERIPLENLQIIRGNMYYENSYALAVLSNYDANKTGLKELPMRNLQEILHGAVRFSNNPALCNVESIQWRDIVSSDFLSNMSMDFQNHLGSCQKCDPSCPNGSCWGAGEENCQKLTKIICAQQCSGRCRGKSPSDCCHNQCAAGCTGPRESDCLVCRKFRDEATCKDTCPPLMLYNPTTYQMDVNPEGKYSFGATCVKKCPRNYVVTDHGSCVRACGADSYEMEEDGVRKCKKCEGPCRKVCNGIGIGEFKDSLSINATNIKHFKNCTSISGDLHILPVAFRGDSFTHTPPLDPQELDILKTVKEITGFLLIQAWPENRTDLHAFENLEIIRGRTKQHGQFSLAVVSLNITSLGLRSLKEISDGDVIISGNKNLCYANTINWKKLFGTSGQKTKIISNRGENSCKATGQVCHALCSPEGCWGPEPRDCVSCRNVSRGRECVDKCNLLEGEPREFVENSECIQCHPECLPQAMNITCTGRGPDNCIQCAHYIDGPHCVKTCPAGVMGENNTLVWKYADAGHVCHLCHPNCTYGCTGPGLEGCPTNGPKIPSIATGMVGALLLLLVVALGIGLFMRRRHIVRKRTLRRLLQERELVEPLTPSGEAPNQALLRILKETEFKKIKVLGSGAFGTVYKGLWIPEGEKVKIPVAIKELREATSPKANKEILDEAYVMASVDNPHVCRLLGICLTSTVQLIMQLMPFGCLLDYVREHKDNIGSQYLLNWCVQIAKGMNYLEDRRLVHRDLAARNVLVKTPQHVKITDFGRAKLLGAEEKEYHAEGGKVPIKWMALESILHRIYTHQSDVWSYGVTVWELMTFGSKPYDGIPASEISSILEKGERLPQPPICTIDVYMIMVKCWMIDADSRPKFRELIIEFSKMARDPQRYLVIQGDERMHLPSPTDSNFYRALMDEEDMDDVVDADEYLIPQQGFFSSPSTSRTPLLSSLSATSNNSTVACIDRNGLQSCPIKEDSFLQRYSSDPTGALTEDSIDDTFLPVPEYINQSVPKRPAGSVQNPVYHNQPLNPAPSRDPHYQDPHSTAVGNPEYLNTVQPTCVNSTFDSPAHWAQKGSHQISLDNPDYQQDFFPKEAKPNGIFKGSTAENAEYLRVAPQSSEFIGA
T3 sequence (P00533 25-1210 T790M/L858R): as above

With `CC[C@H](C)n1nc(N2CC[C@H](O)C2)c2cnc(Nc3ccnc(N4CC[C@](C)(O)[C@H](F)C4)n3)cc21` (relative stereo) [Example 70, (3R*,4S*)-1-{4-[1-((S)-sec-Butyl)-3-((S)-3-hydroxypyrrolidin-1-yl)-1H-pyrazolo[4,3-c]pyridin-6-ylamino]pyrimidin-2-yl}-3-fluoro-4-methylpiperidin-4-ol], the results for the Ki in experiment [1] and in experiment [4] were 2.3 nM and 2 nM, respectively. The figures for the EC50 in experiment [2] and in experiment [3] were 83 nM and 371 nM, respectively.

As for `CC(n1nc(N2CC[C@@H](O)C2)c2cnc(Nc3ccnc(N4CC[C@](C)(O)[C@H](F)C4)n3)cc21)C(F)(F)F` (relative stereo) [Example 79, (3RS,4SR)-3-Fluoro-1-(4-(3-((R)-3-hydroxypyrrolidin-1-yl)-1-((S*)-1,1,1-trifluoropropan-2-yl)-1H-pyrazolo[4,3-c]pyridin-6-ylamino)pyrimidin-2-yl)-4-methylpiperidin-4-ol], the Ki in experiment [1] came to 5.9 nM; in experiment [4], 3.3 nM. In addition, the EC50 in experiment [2] worked out at 165 nM; in experiment [3], 906 nM.

As for `CC(C)n1nc(N2CCC(C)(O)C2)c2cnc(Nc3ccnc(N4CC[C@@H](O)[C@@H](F)C4)n3)cc21` (relative stereo) [Example 104, (3S*,4R*)-3-fluoro-1-(4-((3-(3-hydroxy-3-methylpyrrolidin-1-yl)-1-isopropyl-1H-pyrazolo[4,3-c]pyridin-6-yl)amino)pyrimidin-2-yl)piperidin-4-ol], the figures for the Ki in experiment [1] and in experiment [4] were 1.9 nM and 1.6 nM, respectively. The results for the EC50 in experiment [2] and in experiment [3] were 71.6 nM and 404 nM, respectively.

Regarding `CC1CN(c2nn(C(C)C)c3cc(Nc4ccnc(N5CC[C@H](O)[C@H](F)C5)n4)ncc23)C(=O)N1` (relative stereo) [Example 127, 1-(6-(2-(cis-3-Fluoro-4-hydroxypiperidin-1-yl)pyrimidin-4-ylamino)-1-isopropyl-1H-pyrazolo[4,3-c]pyridin-3-yl)-4-methylimidazolidin-2-one], the Ki in experiment [1] came out at 6 nM; in experiment [4] it was 2.5 nM. Besides, the EC50 in experiment [2] worked out at 466 nM; in experiment [3], 1380 nM.

Turning to `CC1CNC(=O)N1c1nn(C(C)C)c2cc(Nc3ccnc(N4CC[C@H](O)[C@H](F)C4)n3)ncc12` (relative stereo) [Example 128, 1-(6-(2-(cis-3-Fluoro-4-hydroxypiperidin-1-yl)pyrimidin-4-ylamino)-1-isopropyl-1H-pyrazolo[4,3-c]pyridin-3-yl)-5-methylimidazolidin-2-one], the results for the Ki in experiment [1] and in experiment [4] were 15.5 nM and 6.2 nM, respectively. For the same compound, the EC50 amounted to 919 nM in experiment [2] and 2040 nM in experiment [3].

Take `CC(C)n1nc(N2C[C@@H](O)[C@H](F)C2)c2cnc(Nc3ccnc(N4CC[C@H](O)[C@H](F)C4)n3)cc21` (relative stereo) [Example 131, cis-3-Fluoro-1-(4-(3-(trans-3-fluoro-4-hydroxypyrrolidin-1-yl)-1-isopropyl-1H-pyrazolo[4,3-c]pyridin-6-ylamino)pyrimidin-2-yl)piperidin-4-ol]: the Ki in experiment [1] was determined as 1.2 nM; in experiment [4], 0.8 nM. Besides, the values for the EC50 in experiment [2] and in experiment [3] were 129 nM and 1480 nM, respectively.

As for `C[C@H](n1nc(N2CC[C@@H](O)C2)c2cnc(Nc3ccnc(N4CC[C@H](O)[C@H](F)C4)n3)cc21)C(F)(F)F` (relative stereo) [Example 141, (±)-cis-3-Fluoro-1-(4-(3-((R)-3-hydroxypyrrolidin-1-yl)-1-((S*)-1,1,1-trifluoropropan-2-yl)-1H-pyrazolo[4,3-c]pyridin-6-ylamino)pyrimidin-2-yl)piperidin-4-ol], the results for the Ki in experiment [1] and in experiment [4] were 2.7 nM and 1.6 nM, respectively. Moreover, the concentration for a half-maximal effect (EC50) is 89.2 nM in experiment [2] and 769 nM in experiment [3].

For `C[C@@H](n1nc(N2CC[C@@H](O)C2)c2cnc(Nc3ccnc(N4CC[C@H](O)[C@H](F)C4)n3)cc21)C(F)(F)F` (relative stereo) [Example 142, (±)-cis-3-Fluoro-1-(4-(3-((R)-3-hydroxypyrrolidin-1-yl)-1-((R*)-1,1,1-trifluoropropan-2-yl)-1H-pyrazolo[4,3-c]pyridin-6-ylamino)pyrimidin-2-yl)piperidin-4-ol], the Ki in experiment [1] came out at 3.1 nM; in experiment [4], 1.6 nM. Moreover, the EC50 is 110 nM in experiment [2] and 1280 nM in experiment [3].

As to `CCC(C)n1nc(N2C[C@@H](F)[C@@H](N)C2)c2cnc(Nc3ccnc(N4CCC(C)(O)CC4)n3)cc21` (relative stereo) [Example 177, 1-(4-(3-(cis-3-Amino-4-fluoropyrrolidin-1-yl)-1-sec-butyl-1H-pyrazolo[4,3-c]pyridin-6-ylamino)pyrimidin-2-yl)-4-methylpiperidin-4-ol], the Ki in experiment [1] is 2.1 nM; in experiment [4] it was 1.7 nM. Further, the values for the EC50 in experiment [2] and in experiment [3] were 87.2 nM and 489 nM, respectively.

As to `CCC(C)n1nc(N2C[C@H](O)[C@@H](F)C2)c2cnc(Nc3ccnc(N4CCC(C)(O)CC4)n3)cc21` (relative stereo) [Example 178, 1-(4-(1-sec-Butyl-3-(trans-3-fluoro-4-hydroxypyrrolidin-1-yl)-1H-pyrazolo[4,3-c]pyridin-6-ylamino)pyrimidin-2-yl)-4-methylpiperidin-4-ol], the Ki in experiment [1] was determined as 4.7 nM; in experiment [4] it was 1.4 nM. Besides, the EC50 in experiment [2] worked out at 83.2 nM; in experiment [3], 483 nM.

For `CC(C#N)Nc1nn(C(C)C)c2cc(Nc3ccnc(N4CC[C@H](O)[C@H](F)C4)n3)ncc12` (relative stereo) [Example 179, 2-(6-(2-(cis-3-Fluoro-4-hydroxypiperidin-1-yl)pyrimidin-4-ylamino)-1-isopropyl-1H-pyrazolo[4,3-c]pyridin-3-ylamino)propanenitrile], the Ki was found to be 15.1 nM in experiment [1] and 5.6 nM in experiment [4]. Moreover, the EC50 is 746 nM in experiment [2] and 1480 nM in experiment [3].

On to `CC[C@H](C)n1nc(N2CC(C(C)(C)O)C2)c2cnc(Nc3ccnc(N4CC[C@@H](O)[C@@H](F)C4)n3)cc21` (relative stereo) [Example 194, (3S,4R)-1-(4-((1-((S*)-sec-Butyl)-3-(3-(2-hydroxypropan-2-yl)azetidin-1-yl)-1H-pyrazolo[4,3-c]pyridin-6-yl)amino)pyrimidin-2-yl)-3-fluoropiperidin-4-ol], for which the Ki in experiment [1] was 3.5 nM; in experiment [4] it was 1.5 nM. Besides, the EC50 in experiment [2] was 171 nM; in experiment [3], 429 nM.

Regarding `CC[C@@H](C)n1nc(N2CC[C@@H](O)C2)c2cnc(Nc3ccnc(N4CCC5(CC4)CNC(=O)CO5)n3)cc21` (relative stereo) [Example 208, 9-(4-((1-((R*)-sec-Butyl)-3-((R)-3-hydroxypyrrolidin-1-yl)-1H-pyrazolo[4,3-c]pyridin-6-yl)amino)pyrimidin-2-yl)-1-oxa-4,9-diazaspiro[5.5]undecan-3-one], the Ki in experiment [1] is 10.1 nM; in experiment [4] it was 3.8 nM. Besides, the figures for the EC50 in experiment [2] and in experiment [3] were 1200 nM and 9130 nM, respectively.

For `CC[C@@H](C)n1nc(N2CC[C@@H](O)C2)c2cnc(Nc3ccnc(N4CC[C@](C)(C(N)=O)C4)n3)cc21` (relative stereo) [Example 210, (S*)-1-(4-((1-((R*)-sec-Butyl)-3-((R)-3-hydroxypyrrolidin-1-yl)-1H-pyrazolo[4,3-c]pyridin-6-yl)amino)pyrimidin-2-yl)-3-methylpyrrolidine-3-carboxamide], the Ki in experiment [1] came to 2.1 nM; in experiment [4] it was 3.1 nM. Further, the values for the EC50 in experiment [2] and in experiment [3] were 1850 nM and 4050 nM, respectively.

For `CC[C@H](C)n1nc(N2CC3(COC3)C2)c2cnc(Nc3ccnc(N4CC[C@@](C)(O)[C@@H](F)C4)n3)cc21` (single isomer, unassigned) [Example 66, (3R*,4S*)-1-{4-[1-((S)-sec-Butyl)-3-(2-oxa-6-azaspiro[3.3]hept-6-yl)-1H-pyrazolo[4,3-c]pyridin-6-ylamino]pyrimidin-2-yl}-3-fluoro-4-methylpiperidin-4-ol], the figures for the Ki in experiment [1] and in experiment [4] were 4.6 nM and 2.1 nM, respectively. The figures for the EC50 in experiment [2] and in experiment [3] were 63.8 nM and 631 nM, respectively.

As to `CC[C@@H](C)n1nc(N2CC3(COC3)C2)c2cnc(Nc3ccnc(N4CC[C@](C)(O)[C@H](F)C4)n3)cc21` (single isomer, unassigned) [Example 67, (3R*,4S*)-1-{4-[1-((R)-sec-Butyl)-3-(2-oxa-6-azaspiro[3.3]hept-6-yl)-1H-pyrazolo[4,3-c]pyridin-6-ylamino]pyrimidin-2-yl}-3-fluoro-4-methylpiperidin-4-ol], the values for the Ki in experiment [1] and in experiment [4] were 11.1 nM and 3.9 nM, respectively. For the same compound, the figures for the EC50 in experiment [2] and in experiment [3] were 257 nM and 1160 nM, respectively.

The values above are taken from patent US9951064B2, “Azaindazole compounds as inhibitors of T790M containing EGFR mutants” (Genentech, Inc., priority 2013, dated 2018).
